Our source for the GI50 values is patent US20240228458A1, “PYRIMIDINE DERIVATIVE HAVING PROTEIN KINASE INHIBITORY ACTIVITY, AND THERAPEUTIC PHARMACEUTICAL COMPOSITION COMPRISING SAME” (THERAPEX CO., LTD., priority 2021, published 2024).

Holding throughout (type): cell-based
One experiment concerns parental Ba/F3 cell line. The experiment can be described thus: Growth inhibition (GI50) of the parental Ba/F3 cell line (not introduced with EGFR variants), Celltiter glo. The following applies: Mus musculus, BaF3, 72 h, parental Ba/F3 cells. The method, boiled down:
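Viable cell count by CellTiter-Glo after 72 h at 37 °C gave GI50 values (μM, 50% growth inhibition). Cells lacking EGFR variants were seeded at 100,000 cells/ml and dosed 4 h later with 4-fold serial dilutions from a 2 mM stock, 0.5% DMSO.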

The test system of experiment [1] is Ba/F3 cells expressing del19/T790M/C797S (EGFR-DTC). Briefly: Growth inhibition (GI50) of Ba/F3 cells expressing del19/T790M/C797S (EGFR-DTC), Celltiter glo. As to conditions: Mus musculus, BaF3, 72 h. In a few lines:
(§1)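 Ba/F3 cells carrying each EGFR variant were plated at 100,000 cells/ml; after 4 h, compound was added as 10-point 4-fold dilutions (top stock 2 mM, 0.5% DMSO). After 72 h at 37 °C, viability was read by CellTiter-Glo; GI50 is the molar concentration (μM) giving 50% growth inhibition.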
In general terms: Cellular ATP, detected with luciferase, serves as a proxy for viable cell number.

Experiment [2] concerns Ba/F3 cells expressing EGFR-wt. Briefly: Growth inhibition (GI50) of Ba/F3 cells expressing EGFR-wt, Celltiter glo. As to conditions: Mus musculus, BaF3, 72 h. The method, boiled down: as §1
For experiment [3], the system named is Ba/F3 cells expressing L858R/T790M/C797S (EGFR-LTC). Briefly: Growth inhibition (GI50) of Ba/F3 cells expressing L858R/T790M/C797S (EGFR-LTC), Celltiter glo. As to conditions: Mus musculus, BaF3, 72 h. In a few lines:
as §1

Usually GI50 stands for the concentration giving 50% growth inhibition. Turning to `COc1cc(N2CCC(N3CCN(C)CC3)CC2)c(Cl)cc1Nc1ncc(Br)c(Nc2cc(C)ccc2NS(C)(=O)=O)n1` [Example 107, N-(2-((5-bromo-2-((5-chloro-2-methoxy-4-(4-(4-methylpiperazin-1-yl)piperidin-1-yl)phenyl)amino)pyrimidin-4-yl)amino)-4-methylphenyl)methanesulfonamide], the GI50 was in the range of 500 to 2000 nM in the experiment with parental Ba/F3 cell line, 25 to 100 nM in experiment [1], 500 to 2000 nM in experiment [2] and 100 to 500 nM in experiment [3].
Turning to `COc1cc(N2CCC(N3CCN(C)CC3)CC2)c(F)cc1Nc1ncc(Br)c(Nc2cc(C)ccc2NS(C)(=O)=O)n1` [Example 108], the GI50 with parental Ba/F3 cell line was 2000 to 10000 nM; in experiment [1] it was 25 to 100 nM; in experiment [2], 500 to 2000 nM; in experiment [3], 100 to 500 nM.
For the compound `Cc1ccc(NS(C)(=O)=O)c(Nc2nc(Nc3cc(C)c(N4CCC(N5CCN(C)CC5)CC4)cc3Cl)ncc2Br)c1` [Example 109, N-(2-((5-bromo-2-((2-chloro-5-methyl-4-(4-(4-methylpiperazin-1-yl)piperidin-1-yl)phenyl)amino)pyrimidin-4-yl)amino)-4-methylphenyl)methanesulfonamide], the GI50 with parental Ba/F3 cell line lay in the range of 500 to 2000 nM; in experiment [1], 25 to 100 nM; in experiment [2] it was 100 to 500 nM; in experiment [3], 1 to 25 nM.
For the compound `COc1cc(N2CCC(N3CCN(C)CC3)CC2)c(C)cc1Nc1ncc(Cl)c(N(c2ccc3scnc3c2NS(C)(=O)=O)S(C)(=O)=O)n1` [Example 110, N-(5-chloro-2-((2-methoxy-5-methyl-4-(4-(4-methylpiperazin-1-yl)piperidin-1-yl)phenyl)amino)pyrimidin-4-yl)-N-(4-(methylsulfonamido)benzo[d]thiazol-5-yl)methanesulfonamide], the GI50 with parental Ba/F3 cell line lay within 500 to 2000 nM; in experiment [1] it was 100 to 500 nM; in experiment [2] it was 100 to 500 nM; in experiment [3], 25 to 100 nM.
Consider `CN1CCN(C2CCN(c3ccc(Nc4ncc(Cl)c(N(c5ccc6scnc6c5NS(C)(=O)=O)S(C)(=O)=O)n4)cc3F)CC2)CC1` [Example 112, N-(5-chloro-2-((3-fluoro-4-(4-(4-methylpiperazin-1-yl)piperidin-1-yl)phenyl)amino)pyrimidin-4-yl)-N-(4-(methylsulfonamido)benzo[d]thiazol-5-yl)methanesulfonamide], for which the GI50 was 100 to 500 nM in the experiment with parental Ba/F3 cell line, 25 to 100 nM in experiment [1], 100 to 500 nM in experiment [2] and 25 to 100 nM in experiment [3].
For the compound `CN1CCN(C2CCN(c3ncc(Nc4ncc(Cl)c(N(c5ccc6scnc6c5NS(C)(=O)=O)S(C)(=O)=O)n4)cc3F)CC2)CC1` [Example 113, N-(5-chloro-2-((5-fluoro-6-(4-(4-methylpiperazin-1-yl)piperidin-1-yl)pyridin-3-yl)amino)pyrimidin-4-yl)-N-(4-(methylsulfonamido)benzo[d]thiazol-5-yl)methanesulfonamide], the GI50 lay within 2000 to 10000 nM in the experiment on parental Ba/F3 cell line, 500 to 2000 nM in experiment [1], 2000 to 10000 nM in experiment [2] and 500 to 2000 nM in experiment [3].
In the case of `COc1cc(N2CCC(N3CCN(C)CC3)CC2)c(Cl)cc1Nc1ncc(Cl)c(N(c2ccc3scnc3c2NS(C)(=O)=O)S(C)(=O)=O)n1` [Example 114, N-(5-chloro-2-((5-chloro-2-methoxy-4-(4-(4-methylpiperazin-1-yl)piperidin-1-yl)phenyl)amino)pyrimidin-4-yl)-N-(4-(methylsulfonamido)benzo[d]thiazol-5-yl)methanesulfonamide], the GI50 with parental Ba/F3 cell line fell in the range of 500 to 2000 nM; in experiment [1], 100 to 500 nM; in experiment [2] it was 500 to 2000 nM; in experiment [3], 100 to 500 nM.
For the compound `COc1nc(N2CCC(N3CCN(C)CC3)CC2)c(C)cc1Nc1ncc(Cl)c(Nc2ccc3ncccc3c2NS(C)(=O)=O)n1` [Example 116, N-(6-((5-chloro-2-((2-methoxy-5-methyl-6-(4-(4-methylpiperazin-1-yl)piperidin-1-yl)pyridin-3-yl)amino)pyrimidin-4-yl)amino)quinolin-5-yl)methanesulfonamide], the concentration for 50% growth inhibition (GI50) in the experiment on parental Ba/F3 cell line lay in the range of 2000 to 10000 nM; in experiment [1], 25 to 100 nM; in experiment [2] it was 500 to 2000 nM; in experiment [3], 100 to 500 nM.
For the compound `COc1nc(N2CCC(N3CCOCC3)CC2)ccc1Nc1ncc(Cl)c(Nc2ccc3ncccc3c2NS(C)(=O)=O)n1` [Example 117, N-(6-((5-chloro-2-((2-methoxy-6-(4-morpholinopiperidin-1-yl)pyridin-3-yl)amino)pyrimidin-4-yl)amino)quinolin-5-yl)methanesulfonamide], the GI50 with parental Ba/F3 cell line lay within 2000 to 10000 nM; in experiment [1] it was 500 to 2000 nM; in experiment [2] it was 500 to 2000 nM; in experiment [3], 500 to 2000 nM.
Regarding `COc1cc(N2CCC(N3CCN(C)CC3)CC2)c(Cl)cc1Nc1ncc(Cl)c(Nc2ccc3ncccc3c2NS(C)(=O)=O)n1` [Example 118], the GI50 with parental Ba/F3 cell line was more than 10000 nM; in experiment [1], 100 to 500 nM; in experiment [2], 500 to 2000 nM; in experiment [3] it was 100 to 500 nM.
Regarding `COc1cc(N2CCN(C)CC2)ccc1Nc1ncc(Cl)c(Nc2ccc3ncccc3c2NS(C)(=O)=O)n1` [Example 119, N-(6-((5-chloro-2-((2-methoxy-4-(4-methylpiperazin-1-yl)phenyl)amino)pyrimidin-4-yl)amino)quinolin-5-yl)methanesulfonamide], the GI50 lay in the range of 2000 to 10000 nM with parental Ba/F3 cell line, 500 to 2000 nM in experiment [1], 500 to 2000 nM in experiment [2] and 500 to 2000 nM in experiment [3].
In the case of `COc1cc(N2CCC(N3CCN(C)CC3)CC2)c(C)cc1Nc1ncc(Cl)c(N(C)c2ccccc2NS(C)(=O)=O)n1` [Example 120, N-(2-((5-chloro-2-((2-methoxy-5-methyl-4-(4-(4-methylpiperazin-1-yl)piperidin-1-yl)phenyl)amino)pyrimidin-4-yl)(methyl)amino)phenyl)methanesulfonamide], the GI50 in the experiment with parental Ba/F3 cell line is more than 10000 nM; in experiment [1], 2000 to 10000 nM; in experiment [2] it was 2000 to 10000 nM; in experiment [3] it was 2000 to 10000 nM.
For `COc1nc(N2CCC(N3CCN(C)CC3)CC2)c(C)cc1Nc1ncc(Cl)c(N(C)c2ccccc2NS(C)(=O)=O)n1` [Example 121, N-(2-((5-chloro-2-((2-methoxy-5-methyl-6-(4-(4-methylpiperazin-1-yl)piperidin-1-yl)pyridin-3-yl)amino)pyrimidin-4-yl)(methyl)amino)phenyl)methanesulfonamide], the GI50 with parental Ba/F3 cell line was more than 10000 nM; in experiment [1], 2000 to 10000 nM; in experiment [2], 2000 to 10000 nM; in experiment [3] it was 2000 to 10000 nM.
On to `COc1nc(N2CCC(N3CCN(C)CC3)CC2)c(C)cc1Nc1ncc(Cl)c(Nc2ccc3nccnc3c2P(C)(C)=O)n1` [Example 122, (6-((5-chloro-2-((2-methoxy-5-methyl-6-(4-(4-methylpiperazin-1-yl)piperidin-1-yl)pyridin-3-yl)amino)pyrimidin-4-yl)amino)quinoxalin-5-yl)dimethylphosphine oxide], for which the GI50 in the experiment on parental Ba/F3 cell line lay within 500 to 2000 nM; in experiment [1] it was 100 to 500 nM; in experiment [2] it was 100 to 500 nM; in experiment [3] it was 25 to 100 nM.
As for `COc1nc(N2CCC(N3CCN(C)CC3)CC2)ccc1Nc1ncc(Cl)c(Nc2ccc3nccnc3c2P(C)(C)=O)n1` [Example 123, (6-((5-chloro-2-((2-methoxy-6-(4-(4-methylpiperazin-1-yl)piperidin-1-yl)pyridin-3-yl)amino)pyrimidin-4-yl)amino)quinoxalin-5-yl)dimethylphosphine oxide], the GI50 was in the range of 2000 to 10000 nM with parental Ba/F3 cell line, 100 to 500 nM in experiment [1], 500 to 2000 nM in experiment [2] and 100 to 500 nM in experiment [3].
For the compound `CN1CCN(C2CCN(c3ncc(Nc4ncc(Cl)c(Nc5ccc6nccnc6c5P(C)(C)=O)n4)cc3F)CC2)CC1` [Example 124, (6-((5-chloro-2-((5-fluoro-6-(4-(4-methylpiperazin-1-yl)piperidin-1-yl)pyridin-3-yl)amino)pyrimidin-4-yl)amino)quinoxalin-5-yl)dimethylphosphine oxide], the GI50 with parental Ba/F3 cell line fell in the range of 100 to 500 nM; in experiment [1], 25 to 100 nM; in experiment [2] it was 100 to 500 nM; in experiment [3] it was 25 to 100 nM.
Take `CN1CCN(C2CCN(c3ccc(Nc4ncc(Cl)c(Nc5ccc6nccnc6c5P(C)(C)=O)n4)cc3F)CC2)CC1` [Example 125, (6-((5-chloro-2-((3-fluoro-4-(4-(4-methylpiperazin-1-yl)piperidin-1-yl)phenyl)amino)pyrimidin-4-yl)amino)quinoxalin-5-yl)dimethylphosphine oxide]: the GI50 was in the range of 100 to 500 nM in the experiment with parental Ba/F3 cell line, 25 to 100 nM in experiment [1], 100 to 500 nM in experiment [2] and 100 to 500 nM in experiment [3].
On to `COc1nc(N2C[C@@H](C)N(C)[C@@H](C)C2)ccc1Nc1ncc(Cl)c(Nc2ccc3nccnc3c2P(C)(C)=O)n1` [Example 126, (6-((5-chloro-2-((2-methoxy-6-((3S,5R)-3,4,5-trimethylpiperazin-1-yl)pyridin-3-yl)amino)pyrimidin-4-yl)amino)quinoxalin-5-yl)dimethylphosphine oxide], for which the GI50 in the experiment with parental Ba/F3 cell line lay in the range of 2000 to 10000 nM; in experiment [1], 100 to 500 nM; in experiment [2], 2000 to 10000 nM; in experiment [3], 500 to 2000 nM.
For the compound `COc1nc(N2CCC(N(C)C)C2)ccc1Nc1ncc(Cl)c(Nc2ccc3nccnc3c2P(C)(C)=O)n1` (stereo not shown) [Example 127, (6-((5-chloro-2-((6-(3-(dimethylamino)pyrrolidin-1-yl)-2-methoxypyridin-3-yl)amino)pyrimidin-4-yl)amino)quinoxalin-5-yl)dimethylphosphine oxide], the GI50 with parental Ba/F3 cell line was more than 10000 nM; in experiment [1], 2000 to 10000 nM; in experiment [2], more than 10000 nM; in experiment [3] it was 2000 to 10000 nM.
